Usually pKa stands for the negative logarithm of the acid dissociation constant.

This passage reports pKa results from the pKa sets of Baltruschat and Czodrowski (2020).

In the case of `COc1ccc([C@@H]2Sc3ccccc3N(CCN(C)C)C(=O)[C@@H]2OC(C)=O)cc1`, the pKa was 8.06.
In turn, `CNS(=O)(=O)Cc1ccc2[nH]cc(CCN(C)C)c2c1` came in with a pKa of 9.5.
Under `O=C(NCC1CCCCN1)c1cc(OCC(F)(F)F)ccc1OCC(F)(F)F` (centres undefined) stands 9.3.
`Cc1ccc(O)c([C@@H](CCN(C(C)C)C(C)C)c2ccccc2)c1` returned a pKa of 9.8.
As for `CC(C)(C)NCC(O)c1cc(O)cc(O)c1` (centres undefined), the pKa is 8.7.
Take `CC(C)(C)NCC(O)COc1nsnc1N1CCOCC1` (centres undefined): the pKa turned out to be 8.8.
Under `CCc1nn(CCCN2CCN(c3cccc(Cl)c3)CC2)c(=O)n1CCOc1ccccc1` stands 6.5; under `CC(CN1c2ccccc2Sc2ccccc21)N(C)C` (centres undefined), 9.1.
Under `CC(C)(C)NCC(O)COc1cccc2c1C[C@H](O)[C@H](O)C2` (some centres undefined) stands 9.67.
Under `CNCCC=C1c2ccccc2CCc2ccccc21` stands 10.1; under `CC(CCc1ccccc1)NCC(O)c1ccc(O)c(C(N)=O)c1` (centres undefined), 7.4.
Compound `CN(C)CCC=C1c2ccccc2CCc2ccccc21` returned a pKa of 9.4.
Under `CC(C)NCC(O)COc1ccc(COCCOC(C)C)cc1` (centres undefined) stands 9.57.
`CNCC[C@@H](Oc1ccccc1C)c1ccccc1`: the pKa was determined as 10.1.
Under `CCOC(=O)C1(c2ccccc2)CCN(C)CC1` stands 8.7; under `CN1CCN2c3ncccc3Cc3ccccc3C2C1` (centres undefined), 7.3; under `CCN(C)C(=O)Oc1cccc([C@H](C)N(C)C)c1`, 8.99.
Under `CN(C)CCCN1c2ccccc2CCc2ccc(Cl)cc21` stands 9.38; under `CC(C)NCC(O)COc1ccc(CCOCC2CC2)cc1` (centres undefined), 9.21; under `COc1ccc2c3c1O[C@H]1[C@@H](O)C=C[C@H]4[C@@H](C2)N(C)CC[C@@]341`, 8.2.
`OC(CNCC(O)C1CCc2cc(F)ccc2O1)C1CCc2cc(F)ccc2O1` (centres undefined) displayed a pKa of 8.22.
`CC(C)NCC(O)c1ccc(NS(C)(=O)=O)cc1` (centres undefined): the pKa worked out at 9.76.
Consider `Cc1ccccc1OCC(O)CNCCOc1ccc(C(N)=O)cc1` (centres undefined), for which the pKa was 7.9.
On to `CNCCCC12CCC(c3ccccc31)c1ccccc12`, for which the pKa worked out at 10.5.
Under `CC(CN(C)C)CN1c2ccccc2CCc2ccccc21` (centres undefined) stands 9.24.
With `CN(C)CCCN1c2ccccc2Sc2ccccc21`, the pKa is 9.28.
Compound `COc1ccc2c(c1)N(C[C@H](C)CN(C)C)c1ccccc1S2` had a pKa of 9.19.
Under `CN1CCCC(n2nc(Cc3ccc(Cl)cc3)c3ccccc3c2=O)CC1` (centres undefined) stands 9.54; under `O=c1n(CCCN2CCN(c3cccc(Cl)c3)CC2)nc2ccccn12`, 6.79.
